Data on 13 molecules can be found in US10392422B2, “Macrocyclic broad spectrum antibiotics” (priority 2014, dated 2019).

In test [1] the test system is Escherichia coli MC4100 harboring the IMP4213. Nature of the test: MIC, broth micro-dilution technique (CLSI). The class given is cell-based. The following applies: 35° C., 22 hours; for MIC: Escherichia coli, 22 h, read-out: MIC (μg/mL) E. coli, Table 1 protocol: serial 2-fold dilutions starting from 64 μg/ml; for MIC (μg/mL) E. coli: Table 1 protocol: serial 2-fold dilutions starting from 64 μg/ml. How it is done:
(§1) In vitro antimicrobial activity of each compound was determined by measuring minimal inhibitor concentrations (MICs) using the broth micro-dilution technique as approved by the Clinical and Laboratory Standards Institute (CLSI) (Methods for Dilution Antimicrobial Susceptibility Tests for Bacteria that Grow Aerobically; Approved Standard—Eighth Edition. CLSI document M07-A8. Wayne, Pa.: Clinical and Laboratory Standards; 2009). Antibacterial activity was measured against three strains of bacteria: a Methicillin Resistant Staphylococcus aureus strain USA 300 (NRS384); a MRSA COL (NRS100), another Methicillin Resistant Staphylococcus aureus strain; and a strain of Escherichia coli MC4100 harboring the IMP4213, which results in increased outer-membrane permeability (B Martin and Silhavy T. Imp/OstA is required for cell envelope biogenesis in Escherichia coli. (2002) Molecular Microbiology, 45(5), 1289-1302). Cells were inoculated onto plates of Trypyticase Soy Agar or Luria Agar respectively and grown at 35° C. for 20 hours. Inocula suspensions were prepared by scraping cells into 1 ml of testing media (cation adjusted Mueller Hinton Broth supplemented with 0.002% v/v Tween-80) and diluting to a final OD600 nm of 0.01.
(§2) Test compounds were prepared in DMSO at a concentration of 10 mg/ml. These compound stocks were diluted into testing media at a concentration of 64 μg/ml and serial 2-fold dilutions were made in the same media, in 96-well U bottom microtiter dishes, for a total of 10 compound concentrations (Table 1). In modified protocols (Table 2), compound stocks were diluted into testing media at a concentration of 4 μg/mL and serial 2-fold dilutions were made in the same media, in 96-well U bottom microtiter dishes, for a total of 10 compound concentrations. Inocula suspensions were added to the 2-fold serial dilutions of test compounds to a final density of OD OD600 nm of 0.0005 and incubated at 35° C. for 22 hours. […] The results from the protocol starting from a concentration of 64 µg/mL are listed in Table 1 and the results from the modified protocol are shown in Table 2.
In general terms: Dilution methods test growth across graded concentrations, often in twofold steps.

For test [2], the system named is Methicillin Resistant Staphylococcus aureus strain USA 300 (NRS384). Nature of the test: MIC, broth micro-dilution technique (CLSI). Format: cell-based. The note with it: for MIC: Staphylococcus aureus, 22 h, read-out: MIC (μg/mL) S. aureus. The method, then:
as §1, §2

The mark [3] stands for this setting: Table 1 protocol: serial 2-fold dilutions starting from 64 μg/ml, 35° C., 22 hours.

In brackets after ≈: the same amount, converted by molar mass. Where two headings read alike, the source gives them in different places.

For `CCCCCCCC(=O)NCCC(=O)N[C@@H](CCCCN)C(=O)N(C)[C@@H]1C(=O)N[C@@H](C)C(=O)N[C@H](C(=O)N[C@@H](C)C(=O)C2CO2)Cc2ccc(O)c(c2)-c2cc1ccc2O` (stereo partly shown) [Compound 101], the figures for the MIC in test [1] and in test [2] were over 64 µg/mL and 64 µg/mL (≈ 76.6 µM), respectively.

As to `CCCCCCCC(=O)NCCC(=O)N[C@@H](CCCCN)C(=O)N(C)[C@@H]1C(=O)N[C@@H](C)C(=O)N[C@H](C(=O)N[C@@H](C)C(=O)C2CO2)Cc2ccc(O)c(c2)-c2cc1ccc2O` (stereo partly shown) [Compound 102], the “MIC (μg/mL) E. coli” value in test [1] is over 64 µg/mL. Besides, the “MIC (μg/mL) S. aureus” value in test [2] (setting [3]) worked out at 64 µg/mL (≈ 76.6 µM).

Regarding `CCCCCCCC(=O)N[C@@H](CCCCN)C(=O)N(C)[C@@H]1C(=O)N[C@@H](C)C(=O)N[C@H](C(=O)N[C@@H](C)C(=O)C2CO2)Cc2ccc(O)c(c2)-c2cc1ccc2O` (stereo partly shown) [Compound 103], the MIC in test [1] was found to be 23 µg/mL (≈ 30.1 µM); in test [2] (setting [3]), 45 µg/mL (≈ 58.8 µM).

Consider `CC1OC1C(=O)[C@H](C)NC(=O)[C@@H]1Cc2ccc(O)c(c2)-c2cc(ccc2O)[C@H](N(C)C(=O)[C@H](CCCCN)NC(=O)c2ccc(-c3ccc(Cl)cc3)cc2)C(=O)N[C@@H](C)C(=O)N1` (stereo partly shown) [Compound 105], for which the MIC in test [1] is 8 µg/mL (≈ 9.22 µM); in test [2] (setting [3]), 4 µg/mL (≈ 4.61 µM).

Turning to `CC1OC1C(=O)[C@H](C)NC(=O)[C@@H]1Cc2ccc(O)c(c2)-c2cc(ccc2O)[C@H](N(C)C(=O)[C@H](CCCCN)NC(=O)c2ccc(-c3ccc(Cl)cc3)cc2)C(=O)N[C@@H](C)C(=O)N1` (stereo partly shown) [Compound 106], the “MIC (μg/mL) E. coli” value in test [1] is 11 µg/mL (≈ 12.7 µM). Also, the “MIC (μg/mL) S. aureus” value in test [2] (setting [3]) is 5.7 µg/mL (≈ 6.57 µM).

In the case of `CCCCCCCC(=O)NCCC(=O)N[C@@H](CCCCN)C(=O)N(C)[C@@H]1C(=O)N[C@@H](C)C(=O)N[C@H](C(=O)N[C@@H](C)C(=O)CCl)Cc2ccc(O)c(c2)-c2cc1ccc2O` [Compound 107], the figures for the MIC in test [1] and in test [2] were over 64 µg/mL and 64 µg/mL (≈ 76 µM), respectively.

For the molecule `C[C@H](NC(=O)[C@@H]1Cc2ccc(O)c(c2)-c2cc(ccc2O)[C@H](N(C)C(=O)[C@H](CCCCN)NC(=O)c2ccc(-c3ccc(Cl)cc3)cc2)C(=O)N[C@@H](C)C(=O)N1)C(=O)CCl` [Compound 108], the MIC worked out at 8 µg/mL (≈ 9.3 µM) in test [1] and 4 µg/mL (≈ 4.65 µM) in test [2].

For `C[C@H](NC(=O)[C@@H]1Cc2ccc(O)c(c2)-c2cc(ccc2O)[C@H](N(C)C(=O)[C@H](CCCCN)NC(=O)c2ccc(-c3ccc(Cl)cc3)cc2)C(=O)N[C@@H](C)C(=O)N1)C(=O)COC(=O)c1ncccn1` [Compound 122], the MIC in test [1] was determined as 32 µg/mL (≈ 33.8 µM); in test [2] it was 1.4 µg/mL (≈ 1.48 µM).

For the molecule `CC(=O)OCC(=O)[C@H](C)NC(=O)[C@@H]1Cc2ccc(O)c(c2)-c2cc(ccc2O)[C@H](N(C)C(=O)[C@H](CCCCN)NC(=O)c2ccc(-c3ccc(Cl)cc3)cc2)C(=O)N[C@@H](C)C(=O)N1` [Compound 123], the MIC in test [1] worked out at 32 µg/mL (≈ 36.2 µM); in test [2], 3.2 µg/mL (≈ 3.62 µM).

Regarding `CCCCCCCC(=O)NCCC(=O)N[C@@H](CCCCN)C(=O)N(C)[C@@H]1C(=O)N[C@@H](C)C(=O)N[C@H](CO)Cc2ccc(O)c(c2)-c2cc1ccc2O` [Compound 153], the MIC in test [2] (setting [3]) was found to be 130 µg/mL (≈ 179 µM).

On to `CCCCc1ccc(-c2ccc(C(=O)NC[C@@H](C)C(=O)N[C@@H](CCCCN)C(=O)N(C)[C@@H]3C(=O)N[C@@H](C)C(=O)N[C@H](C(=O)N[C@@H](C)C(=O)N4CCC[C@H]4C(N)=O)Cc4ccc(O)c(c4)-c4cc3ccc4OC(=O)OCC(C)C)cc2)cc1` [Compound 184], for which the MIC in test [2] stood at 2 µg/mL (≈ 1.77 µM).

For the molecule `CCCCc1ccc(-c2ccc(C(=O)N[C@@H](CN)C(=O)N(C)[C@@H]3C(=O)N[C@@H](C)C(=O)N[C@H](C(=O)O)Cc4ccc(OCCN)c(c4)-c4cc3ccc4OCCN)cc2)cc1` [Compound 292], in test [1], the MIC is 0.063 µg/mL (≈ 0.0766 µM).

Regarding `CCCCCCCCCCCCCC(=O)N[C@@H](CN)C(=O)N(C)[C@@H]1C(=O)N[C@@H](C)C(=O)N[C@H](C(=O)N[C@@H](C)B2O[C@@H]3C[C@@H]4C[C@@H](C4(C)C)[C@]3(C)O2)Cc2ccc(OCCN)c(c2)-c2cc1ccc2OCCN` [Compound 318], in test [1], the MIC was 0.063 µg/mL (≈ 0.0629 µM).
